{
  "source": "ChEMBL document CHEMBL1201862",
  "about": "“PubChem BioAssay data set” (2004)",
  "key": {"[1]": {"assay": "THP-1 cell cytotoxicity, dose response, cytotoxicity control for non-replicating M. tuberculosis project (AID 489025)", "type": "functional"}, "[2]": {"assay": "A High Throughput Confirmatory Assay used to Identify Novel Compounds that Inhibit Mycobacterium Tuberculosis in the absence of Glycerol.", "type": "functional"}, "Protein Tat": {"molecular_target": "T1, Protein Tat (Human immunodeficiency virus type 1 group M subtype B (isolate HXB2)(HIV-1), UniProt P04608)", "T1 sequence (P04608 whole entry)": "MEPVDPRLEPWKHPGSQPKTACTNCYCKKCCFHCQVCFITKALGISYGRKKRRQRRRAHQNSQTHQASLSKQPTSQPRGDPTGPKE", "type": "functional"}, "Genome polyprotein [3]": {"molecular_target": "Genome polyprotein (dengue virus type 2, UniProt P29990)", "sequence (P29990 2492-3391 limits assumed)": "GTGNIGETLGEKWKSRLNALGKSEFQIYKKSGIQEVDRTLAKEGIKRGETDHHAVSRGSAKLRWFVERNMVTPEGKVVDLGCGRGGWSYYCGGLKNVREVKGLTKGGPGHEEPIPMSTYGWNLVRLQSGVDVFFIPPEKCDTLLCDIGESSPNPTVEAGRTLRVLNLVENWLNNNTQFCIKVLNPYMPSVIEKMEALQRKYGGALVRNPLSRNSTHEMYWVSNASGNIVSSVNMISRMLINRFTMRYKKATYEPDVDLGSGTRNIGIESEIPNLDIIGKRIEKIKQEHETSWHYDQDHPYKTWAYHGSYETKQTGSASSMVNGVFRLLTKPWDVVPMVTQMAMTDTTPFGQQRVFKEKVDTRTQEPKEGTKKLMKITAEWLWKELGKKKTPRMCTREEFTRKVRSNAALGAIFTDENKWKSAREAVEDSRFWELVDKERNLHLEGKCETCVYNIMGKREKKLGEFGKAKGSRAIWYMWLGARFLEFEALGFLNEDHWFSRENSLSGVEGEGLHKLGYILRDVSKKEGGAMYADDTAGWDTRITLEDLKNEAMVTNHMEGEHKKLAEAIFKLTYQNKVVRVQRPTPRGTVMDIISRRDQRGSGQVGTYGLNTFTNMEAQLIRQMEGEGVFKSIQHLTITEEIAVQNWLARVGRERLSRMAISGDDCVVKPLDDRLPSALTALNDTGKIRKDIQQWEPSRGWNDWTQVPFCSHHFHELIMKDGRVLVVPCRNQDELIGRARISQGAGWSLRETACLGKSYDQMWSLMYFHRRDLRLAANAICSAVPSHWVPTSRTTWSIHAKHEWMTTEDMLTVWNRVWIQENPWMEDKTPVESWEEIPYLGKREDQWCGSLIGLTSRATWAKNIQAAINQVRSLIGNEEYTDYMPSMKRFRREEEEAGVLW", "assay": "Dengue-2 NS5 methyltransferase inhibitors, primary screen, biochemical, confirmation dose response (AID 588689)", "type": "functional"}, "[4]": {"molecular_target": "Matrix metalloproteinase-14 (Homo sapiens, UniProt P50281)", "assay": "Dose Response confirmation of uHTS hits for a small molecule inhibitors of MT1-MMP activation in a fluorescence assay set 2.", "type": "functional"}, "Vero": {"tested_on": "Vero", "assay": "Vero cell cytotoxicity, cytotoxicity control for flavivirus capping enzyme inhibitors (AID 588742)", "type": "functional", "conditions": "Chlorocebus sabaeus"}, "Genome polyprotein [5]": {"molecular_target": "Genome polyprotein (Hepatitis C virus, UniProt Q2Q167)", "sequence (Q2Q167 whole entry)": "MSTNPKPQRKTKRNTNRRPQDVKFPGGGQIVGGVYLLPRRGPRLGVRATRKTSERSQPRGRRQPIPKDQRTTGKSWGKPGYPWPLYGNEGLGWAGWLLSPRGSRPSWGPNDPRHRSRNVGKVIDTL", "assay": "HCV core protein dimerization inhibitors, dose response, biochemical, TR-FRET (AID 2159);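 note: blocks dimerization of HCV core protein measured by TR-FRET between tagged core106 pairs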", "parameters": "species or system Hepacivirus hominis"}, "[6]": {"assay": "Luminescence Cell-Based Dose Retest to Confirm Inhibitors of Cancer Stem Cells. [Related pubchem assays (depositor defined):AID2717, AID2721]", "type": "functional", "conditions": "Homo sapiens"}, "[7]": {"assay": "microbe, parasite or virus in culture", "type": "functional", "conditions": "Mycobacterium tuberculosis"}, "[8]": {"assay": "THP-1 cell cytotoxicity, dose response, cytotoxicity control for Vif-APOBEC3G degradation inhibitor project, THP-1 cells (AID 1117359)", "type": "functional", "conditions": "Human immunodeficiency virus 1, THP-1"}, "[9]": {"molecular_target": "DNA (cytosine-5)-methyltransferase 1 (Homo sapiens, UniProt P26358)", "sequence (P26358 whole entry)": "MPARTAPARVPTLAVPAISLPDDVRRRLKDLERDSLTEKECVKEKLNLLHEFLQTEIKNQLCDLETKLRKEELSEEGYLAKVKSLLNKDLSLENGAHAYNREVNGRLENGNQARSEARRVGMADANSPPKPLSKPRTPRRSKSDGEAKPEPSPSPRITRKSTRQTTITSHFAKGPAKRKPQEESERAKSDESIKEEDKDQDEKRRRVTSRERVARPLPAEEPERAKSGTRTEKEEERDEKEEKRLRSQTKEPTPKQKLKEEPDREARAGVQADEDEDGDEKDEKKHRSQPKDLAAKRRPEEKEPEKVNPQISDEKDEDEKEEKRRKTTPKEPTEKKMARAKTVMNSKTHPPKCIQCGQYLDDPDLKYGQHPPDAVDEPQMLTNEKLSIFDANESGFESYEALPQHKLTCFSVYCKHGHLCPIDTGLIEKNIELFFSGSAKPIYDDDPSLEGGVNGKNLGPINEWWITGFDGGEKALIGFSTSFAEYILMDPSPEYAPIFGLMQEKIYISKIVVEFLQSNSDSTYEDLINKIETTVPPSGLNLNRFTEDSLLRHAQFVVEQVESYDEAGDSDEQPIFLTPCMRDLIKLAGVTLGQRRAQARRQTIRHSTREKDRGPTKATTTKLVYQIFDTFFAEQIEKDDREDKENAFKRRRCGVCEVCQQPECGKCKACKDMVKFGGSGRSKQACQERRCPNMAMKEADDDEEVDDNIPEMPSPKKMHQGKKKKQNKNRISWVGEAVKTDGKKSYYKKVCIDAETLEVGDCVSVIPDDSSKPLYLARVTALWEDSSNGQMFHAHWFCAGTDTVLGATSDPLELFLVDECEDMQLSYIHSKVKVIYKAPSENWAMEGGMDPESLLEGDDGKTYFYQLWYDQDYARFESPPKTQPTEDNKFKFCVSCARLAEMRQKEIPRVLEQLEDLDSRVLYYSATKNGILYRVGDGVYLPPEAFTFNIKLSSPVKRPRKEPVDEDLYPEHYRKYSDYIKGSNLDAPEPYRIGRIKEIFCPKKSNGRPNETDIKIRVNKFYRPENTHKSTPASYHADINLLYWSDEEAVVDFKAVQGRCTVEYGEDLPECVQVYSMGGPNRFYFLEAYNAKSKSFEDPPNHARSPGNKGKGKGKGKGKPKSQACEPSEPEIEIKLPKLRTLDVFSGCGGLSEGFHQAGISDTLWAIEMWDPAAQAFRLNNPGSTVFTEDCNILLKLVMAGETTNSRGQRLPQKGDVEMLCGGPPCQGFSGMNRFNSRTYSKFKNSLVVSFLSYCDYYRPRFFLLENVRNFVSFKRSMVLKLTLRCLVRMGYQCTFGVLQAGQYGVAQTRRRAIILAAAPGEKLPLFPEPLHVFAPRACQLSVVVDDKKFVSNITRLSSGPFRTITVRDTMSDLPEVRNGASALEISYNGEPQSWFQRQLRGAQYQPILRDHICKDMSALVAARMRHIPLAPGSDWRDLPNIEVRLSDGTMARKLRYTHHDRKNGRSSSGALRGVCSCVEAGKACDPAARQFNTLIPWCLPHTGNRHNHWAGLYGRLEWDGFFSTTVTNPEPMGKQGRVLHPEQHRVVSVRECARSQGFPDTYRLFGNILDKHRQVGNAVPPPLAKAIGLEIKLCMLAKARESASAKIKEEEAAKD", "assay": "DNMT1 methyltransferase inhibitors, confirmation, biochemical, fluorescent molecular beacon (AID 602386)", "type": "functional"}, "cells": {"assay": "cells", "type": "functional"}, "[10]": {"molecular_target": "Platelet-activating factor acetylhydrolase (Mus musculus, UniProt Q60963)", "sequence (Q60963 whole entry)": "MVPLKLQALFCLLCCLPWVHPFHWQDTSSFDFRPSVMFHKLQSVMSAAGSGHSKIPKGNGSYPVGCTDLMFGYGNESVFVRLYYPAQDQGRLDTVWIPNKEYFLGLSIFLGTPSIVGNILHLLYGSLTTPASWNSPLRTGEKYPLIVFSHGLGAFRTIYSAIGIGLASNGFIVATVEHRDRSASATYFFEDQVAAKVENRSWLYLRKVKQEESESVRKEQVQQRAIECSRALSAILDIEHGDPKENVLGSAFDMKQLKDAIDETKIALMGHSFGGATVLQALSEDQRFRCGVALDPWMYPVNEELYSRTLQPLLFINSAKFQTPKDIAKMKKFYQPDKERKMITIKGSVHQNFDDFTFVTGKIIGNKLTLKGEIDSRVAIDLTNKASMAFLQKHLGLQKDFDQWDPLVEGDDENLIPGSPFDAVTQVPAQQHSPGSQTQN", "assay": "Late stage assay provider results from the probe development effort to identify inhibitors of plasma platelet activating factor acetylhydrolase (pPAFAH): fluorescence-based dose response biochemical gel-based competitive Activity-Based Protein Profiling (ABPP) assay for HTS compounds. [Related pubchem assays (depositor defined):AID463082, AID463092, AID463230, AID588474]", "type": "cell-free"}, "Beta Lactamase": {"molecular_target": "Beta Lactamase (Pseudomonas aeruginosa, UniProt Q932Y6)", "sequence (Q932Y6 whole entry)": "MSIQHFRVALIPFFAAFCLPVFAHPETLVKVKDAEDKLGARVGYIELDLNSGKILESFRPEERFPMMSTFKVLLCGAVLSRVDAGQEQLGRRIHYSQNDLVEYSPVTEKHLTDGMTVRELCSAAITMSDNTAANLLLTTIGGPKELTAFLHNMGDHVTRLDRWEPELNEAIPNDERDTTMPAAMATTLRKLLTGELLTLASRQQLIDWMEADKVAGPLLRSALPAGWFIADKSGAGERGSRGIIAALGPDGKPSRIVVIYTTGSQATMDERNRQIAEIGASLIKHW", "assay": "beta-lactamase reporter inhibitor potency, dose response, artefact control for TLR9-MyD88 binding inhibitor project, BLA reporter cells, FRET fluorescence (AID 588341);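 note: cell based assay in CHO-K1 cells stably expressing beta-lactamase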", "type": "cell-based"}, "CHO": {"tested_on": "CHO", "assay": "cytotoxicity in TLR9-MyD88 CHO cells, dose response, cytotoxicity control for TLR9-MyD88 binding inhibitor project, cell-based, luminescence (AID 588339);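 note: CHO cells stably coexpressing TLR9 and MyD88 fusions from primary screen; compound exposure lasted 48 hours before viability readout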", "type": "functional, hamster", "conditions": "Cricetulus griseus"}, "[11]": {"molecular_target": "T2, Botulinum neurotoxin type F (Clostridium botulinum, UniProt P30996)", "T2 sequence (P30996 1-436 limits assumed)": "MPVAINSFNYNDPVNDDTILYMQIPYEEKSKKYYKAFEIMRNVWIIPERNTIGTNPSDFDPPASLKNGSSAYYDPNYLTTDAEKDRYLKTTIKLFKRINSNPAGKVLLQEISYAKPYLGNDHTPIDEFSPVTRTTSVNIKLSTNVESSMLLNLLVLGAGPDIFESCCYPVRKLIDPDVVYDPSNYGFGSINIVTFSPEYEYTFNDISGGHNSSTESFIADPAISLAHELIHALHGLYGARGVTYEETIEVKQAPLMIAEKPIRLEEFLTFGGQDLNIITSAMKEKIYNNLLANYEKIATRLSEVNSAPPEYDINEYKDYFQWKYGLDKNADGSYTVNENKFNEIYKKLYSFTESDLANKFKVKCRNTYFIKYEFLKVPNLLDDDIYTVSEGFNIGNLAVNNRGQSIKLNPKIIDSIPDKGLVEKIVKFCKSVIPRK", "assay": "High-throughput multiplex microsphere dose response for inhibitors of toxin protease, specifically Botulinum neurotoxin light chain F protease, compounds from Cherry Pick 01.", "type": "functional", "conditions": "read-out: EC50_MICROM"}, "[12]": {"molecular_target": "T2, Botulinum neurotoxin type F", "assay": "High-throughput multiplex microsphere dose response for inhibitors of toxin protease, specifically Botulinum neurotoxin light chain F protease, compounds from Powder Set 01.", "type": "functional, Clostridium botulinum Bf", "conditions": "read-out: EC50_MICROM"}, "[13]": {"molecular_target": "Sphingosine 1-phosphate receptor 3 (Homo sapiens, UniProt Q99500)", "assay": "Dose response cell-based high throughput screening assay for antagonists of the Sphingosine 1-Phosphate Receptor 3 (S1P3). [Related pubchem assays: 1429, 485 ]", "type": "functional"}, "[14]": {"molecular_target": "G-protein coupled receptor 55 (Homo sapiens, UniProt Q9Y2T6)", "sequence (Q9Y2T6 whole entry)": "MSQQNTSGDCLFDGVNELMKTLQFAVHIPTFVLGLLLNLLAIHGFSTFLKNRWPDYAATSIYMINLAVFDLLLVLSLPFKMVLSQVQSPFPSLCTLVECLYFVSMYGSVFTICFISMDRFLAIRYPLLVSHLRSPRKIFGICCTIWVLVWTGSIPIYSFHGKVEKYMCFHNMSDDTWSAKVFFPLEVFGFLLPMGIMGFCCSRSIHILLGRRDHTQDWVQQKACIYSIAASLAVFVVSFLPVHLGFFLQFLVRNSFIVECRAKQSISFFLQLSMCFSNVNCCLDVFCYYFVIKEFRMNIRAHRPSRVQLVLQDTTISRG", "assay": "GPR55 agonists via beta-arrestin recruitment, primary screen, imaging, U2OS cells, beta-arrestin-GFP redistribution (AID 1961)", "type": "functional"}, "[15]": {"molecular_target": "T3, Botulinum neurotoxin type A (Clostridium botulinum (strain Hall / ATCC 3502 / NCTC 13319 / Type A), UniProt P0DPI1)", "T3 sequence (P0DPI1 2-448 limits assumed)": "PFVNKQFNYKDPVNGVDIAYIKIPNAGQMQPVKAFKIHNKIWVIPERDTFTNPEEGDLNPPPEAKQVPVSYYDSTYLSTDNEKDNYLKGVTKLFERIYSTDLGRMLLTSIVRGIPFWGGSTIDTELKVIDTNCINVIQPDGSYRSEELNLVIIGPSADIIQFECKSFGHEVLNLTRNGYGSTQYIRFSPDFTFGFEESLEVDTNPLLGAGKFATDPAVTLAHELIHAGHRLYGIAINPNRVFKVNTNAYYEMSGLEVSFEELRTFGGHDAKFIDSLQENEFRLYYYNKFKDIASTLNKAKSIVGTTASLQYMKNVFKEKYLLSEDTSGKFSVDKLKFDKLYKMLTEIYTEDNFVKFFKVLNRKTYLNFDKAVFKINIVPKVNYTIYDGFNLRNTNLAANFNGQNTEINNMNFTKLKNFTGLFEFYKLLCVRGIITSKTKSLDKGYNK", "assay": "Confirmatory FRET assay using full length substrates for Botulinum neurotoxin light chain A protease, with Powder Set01.", "type": "functional"}, "[16]": {"molecular_target": "T3, Botulinum neurotoxin type A", "assay": "High-throughput multiplex microsphere dose response for inhibitors of toxin protease, specifically Botulinum neurotoxin light chain A protease, compounds from Cherry Pick 01.", "type": "functional", "conditions": "read-out: EC50_MICROM"}, "[17]": {"molecular_target": "T3, Botulinum neurotoxin type A", "assay": "High-throughput multiplex microsphere dose response for inhibitors of toxin protease, specifically Botulinum neurotoxin light chain A protease, compounds from Powder Set 01.", "type": "functional, Clostridium botulinum A str. ATCC 3502", "conditions": "read-out: EC50_MICROM"}, "[18]": {"molecular_target": "5-hydroxytryptamine receptor 1E (Homo sapiens, UniProt P28566)", "sequence (P28566 whole entry)": "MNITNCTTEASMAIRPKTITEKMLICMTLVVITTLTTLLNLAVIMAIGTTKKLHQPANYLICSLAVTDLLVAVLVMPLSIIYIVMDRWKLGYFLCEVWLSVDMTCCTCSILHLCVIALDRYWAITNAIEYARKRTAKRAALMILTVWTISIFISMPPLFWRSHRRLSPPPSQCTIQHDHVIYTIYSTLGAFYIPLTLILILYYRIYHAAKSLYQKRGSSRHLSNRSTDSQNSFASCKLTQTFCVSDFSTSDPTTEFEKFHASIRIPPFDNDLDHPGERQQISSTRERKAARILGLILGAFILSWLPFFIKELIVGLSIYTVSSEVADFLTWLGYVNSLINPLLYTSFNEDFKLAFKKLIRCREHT", "assay": "Counterscreen assay for S1P3 antagonists: Dose response cell-based high throughput screening assay to identify antagonists of the 5-Hydroxytryptamine Receptor Subtype 1E (5HT1E). [Related pubchem assays: 1429, 485 ]", "type": "functional"}},
  "note": "Activity calls are given as the source filed them.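 Throughout, for AC50: cells exposed to compound for roughly 70 hours or longer before luminescence read.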",
  "data": [
    {"smiles": "Cn1cccc1/C=C1/C(=O)NC(=S)N(Cc2ccc(F)cc2)C1=O", "values": [
      {"measurement": "CC50", "setting": "[1]", "result": "14.5 µM (active)"},
      {"measurement": "IC50", "setting": "[2]", "result": "> 100 µM (active)"},
      {"measurement": "IC50", "setting": "Protein Tat", "result": "> 100 µM (active)"},
      {"measurement": "IC50", "setting": "Genome polyprotein [3]", "result": "> 100 µM (active)"},
      {"measurement": "IC50", "setting": "[4]", "result": "55.3 µM (inactive)"},
      {"measurement": "CC50", "setting": "Vero", "result": "> 40 µM (active)"},
      {"measurement": "IC50", "setting": "Genome polyprotein [5]", "result": "> 49.8 µM (not active)"},
      {"measurement": "AC50", "setting": "[6]", "result": "1.18 µM (active)"},
      {"measurement": "CC50", "setting": "[7]", "result": "23 µM (active)"},
      {"measurement": "CC50", "setting": "[8]", "result": "> 40 µM (active)"},
      {"measurement": "IC50", "setting": "[9]", "result": "3.55 µM (active)"},
      {"measurement": "IC50", "setting": "cells", "result": "33.9 µM (active)"}
    ]},
    {"smiles": "CN(C)C(=O)Oc1noc2cc(Cl)ccc12", "values": [
      {"measurement": "IC50", "setting": "[10]", "result": "0.234 µM (active)"}
    ]},
    {"smiles": "O=[N+]([O-])c1ccc(C2=NN(c3ccccc3)C(c3ccco3)C2)cc1", "note": "(stereo not drawn)", "values": [
      {"measurement": "IC50", "setting": "Beta Lactamase", "result": "2.64 µM (active)"},
      {"measurement": "IC50", "setting": "CHO", "result": "> 49.7 µM (inactive)"},
      {"measurement": "EC50", "setting": "[11]", "result": "1.5 µM (active)"},
      {"measurement": "EC50", "setting": "[12]", "result": "0.5 µM (active)"},
      {"measurement": "IC50", "setting": "[13]", "result": "3.78 µM (active)"},
      {"measurement": "EC50", "setting": "[14]", "result": "< 0.5 µM (active)"},
      {"measurement": "EC50", "setting": "[15]", "result": "3.1 µM (active)"},
      {"measurement": "EC50", "setting": "[16]", "result": "2.6 µM (active)"},
      {"measurement": "EC50", "setting": "[17]", "result": "0.4 µM (active)"},
      {"measurement": "IC50", "setting": "[18]", "result": "2.49 µM (active)"}
    ]}
  ]
}
